Reference: patent US12194032B2, “Method of treating focal segmental glomerulosclerosis” (ChemoCentryx, Inc., priority 2016, dated 2025)

Experiments:
Format in all cases: in vivo
[1] = tested on: Adriamycin nephropathy female Balb/c mice; assay: Adriamycin Nephropathy Model (Example 2); conditions: Adriamycin 7.5 mg/kg i.v. day 0; compound 1 90 mg/kg subcutaneously once daily; candesartan orally once daily; week 1, 2 and 3; vs vehicles
Protocol: (§1) The remnant kidney and the adryamicin drug-induced models are commonly used rodent models for FSGS (de Mik S M. Et al. Pathophysiology and treatment of focal segmental glomerulosclerosis: the role of animal models. BMC Nephrol. 2013 Apr. 1; 14:74). The 5/6 remnant kidney model is representative of secondary FSGS whereas the Adriamycin nephropathy model is representative of primary FSGS.
The experiment was performed in female Balb/c mice (Jackson Laboratories). The mice were kept on standard chow and had free access to water. 7.5 mg/kg Adriamycin (Selleck Chemicals) or saline (control) was injected in a tail vein in isoflurane-anesthetized animals at day 0. Compound 1 and its vehicle (1% HPMC) were dosed subcutaneously once daily at 90 mg/kg formulated in 1% HPMC. Candesartan and its vehicle (H2O) were dosed orally once daily. Twelve animals were used for each group.
[…] Urinary albumin was measured by ELISA (Bethyl Labs, Montgomery, TX), and the urinary albumin excretion rate (UAER) was calculated as micrograms per 24 hours. Urinary creatinine was measured by mass spectrometry. The albumin to creatinine ratio (ACR) was calculated as micrograms of albumin per milligram of creatinine.

[2] = tested on: 5/6 remnant kidney 129X1/SvJ mice; assay: 5/6 Remnant Kidney Model (Example 1); conditions: 5/6 nephrectomized mice
Description: as §1
(§2) The 5/6 remnant kidney 129X1/SvJ mice was obtained from Jackson Laboratories. The mice were kept on standard chow and had free access to water. The mice surgery was performed in two stages. Under isoflurane anesthesia, two-thirds of the left kidney mass was dissected. After 7 to 10 days, a right unilateral nephrectomy was performed. Six weeks after the 5/6 nephrectomy, the mice were randomized for the study. Compound 3 and its vehicle were dosed subcutaneously once daily at 100 mg/kg formulated in 1% HPMC. 6 animals were used for each group.
Urine samples were collected at weeks one and two by individually housing the mice in metabolic cages for 18 hours. Urinary albumin was measured by ELISA (Bethyl Labs, Montgomery, TX), and the urinary albumin excretion rate (UAER) was calculated as micrograms per 24 hours. Urinary creatinine was measured by mass spectrometry. The albumin to creatinine ratio (ACR) was calculated as micrograms of albumin per milligram of creatinine. At the end of the experiments (after 2 weeks of treatment), the kidneys were collected, fixed in formalin, embedded in paraffin, and cut into 3-μm-thick sections. Sections were stained for podocytes by immunohistochemistry with Wilms tumor protein 1 antibody (Abcam, Cambridge, MA). Glomerular cross-sectional area and podocyte number were determined in 20-30 glomeruli per mouse. Glomerulus volume and podocyte density were calculated from the immunohistochemistry data using the Weibel method. Mesangial expansion was measured by silver methenamine stain on 2-μm-thick paraffin sections by conventional methods.

[3] = tested on: 5/6 remnant kidney 129X1/SvJ mice; assay: 5/6 Remnant Kidney Model with Combination Treatment (Example 3); conditions: 5/6 nephrectomized mice, compound 3 100 mg/kg subcutaneously once daily, candesartan 5 mg/kg orally once daily
Description: as §1
as §2, with “After seven” for “After 7”, “to ten” for “to 10”, “performed. Three to six” for “performed. Six”, “the study (n=12 per group).” for “the study.”, “HPMC. […]” for “HPMC. 6 animals were used for each group.”
Urine samples were collected at week one, two and three by individually housing the mice in metabolic cages for 18 hours. Urinary albumin was measured by ELISA (Bethyl Labs, Montgomery, TX), and the urinary albumin excretion rate (UAER) was calculated as micrograms per 24 hours. Urinary creatinine was measured by mass spectrometry. The albumin to creatinine ratio (ACR) was calculated as micrograms of albumin per milligram of creatinine.

[4] = 100 mg/kg subcutaneously once daily, kidneys after 2 weeks of treatment

SMILES | UACR levels (FIG. 8) [1] | proteinuria (UACR values, FIG. 1) ([2]; 100 mg/kg subcutaneously once daily in 1% HPMC, week 1 and 2, vs vehicle) | number of renal interstitial macrophages (macrophage content as percentage of total area, FIG. 2) [2, 4] | percentage of glomeruli with mesangiolysis (FIG. 6) [2, 4] | podocytes numbers per glomerular cross section (FIG. 4) [2, 4] | UACR values (FIG. 11) ([3]; week 1 and week 2) | UAER values (FIG. 10) ([3]; weeks 1, 2 and 3)
Cc1cnc(C(=O)c2ccnc3[nH]ccc23)c(NS(=O)(=O)c2ccc(Cl)c(C(F)(F)F)c2)c1 [compound 1] | reduction in UACR levels | – | – | – | – | – | –
O=C(c1ncc(Cl)cc1NS(=O)(=O)c1ccc(Cl)c(C(F)(F)F)c1)c1ccnc2[nH]ccc12 [compound 3] | – | reduces the profound proteinuria | reduces the number of renal interstitial macrophages | beneficial effect | increased podocytes numbers | reduction in UACR values | reduction in UAER values
